According to patent US10407422B2, “Triazolopyridine inhibitors of myeloperoxidase” (priority 2015, dated 2019):

Legend:
myeloperoxidase (MPO) [1] = biological target: T1, myeloperoxidase (MPO) (Homo sapiens (Human), UniProt P05164); assay: MPO chlorination assay (APF assay); assay type: biochemical; settings: potency range class
How it was run: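 Chlorinating activity followed by APF cleavage to fluorescein (485/535 nm, 3 min kinetic read) after adding APF and 10 μM H2O2. Beforehand, 200 pM enzyme, compound and 120 mM NaCl sat 10 min at room temperature in 100 mM KPi, pH 7.4. Initial-rate slopes gave % inhibition; IC50 by Hill-slope fit.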

myeloperoxidase (MPO) [2] = biological target: T1, myeloperoxidase (MPO); assay: MPO peroxidation assay (Amplex Red assay); assay type: biochemical; settings: potency range class
How it was run: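 IC50 values come from a four-parameter fit of rates taken from the linear 180-540 s portion of a 15 min kinetic read of resorufin (Ex 535/Em 590 nm). Amplex Red (200 μM) plus 10 mM H2O2 was added after a 10 min room-temperature preincubation of inhibitor with 200 pM MPO and 40 nM H2O2 in 100 mM KPi, pH 7.4.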

T1 sequence (P05164 49-745): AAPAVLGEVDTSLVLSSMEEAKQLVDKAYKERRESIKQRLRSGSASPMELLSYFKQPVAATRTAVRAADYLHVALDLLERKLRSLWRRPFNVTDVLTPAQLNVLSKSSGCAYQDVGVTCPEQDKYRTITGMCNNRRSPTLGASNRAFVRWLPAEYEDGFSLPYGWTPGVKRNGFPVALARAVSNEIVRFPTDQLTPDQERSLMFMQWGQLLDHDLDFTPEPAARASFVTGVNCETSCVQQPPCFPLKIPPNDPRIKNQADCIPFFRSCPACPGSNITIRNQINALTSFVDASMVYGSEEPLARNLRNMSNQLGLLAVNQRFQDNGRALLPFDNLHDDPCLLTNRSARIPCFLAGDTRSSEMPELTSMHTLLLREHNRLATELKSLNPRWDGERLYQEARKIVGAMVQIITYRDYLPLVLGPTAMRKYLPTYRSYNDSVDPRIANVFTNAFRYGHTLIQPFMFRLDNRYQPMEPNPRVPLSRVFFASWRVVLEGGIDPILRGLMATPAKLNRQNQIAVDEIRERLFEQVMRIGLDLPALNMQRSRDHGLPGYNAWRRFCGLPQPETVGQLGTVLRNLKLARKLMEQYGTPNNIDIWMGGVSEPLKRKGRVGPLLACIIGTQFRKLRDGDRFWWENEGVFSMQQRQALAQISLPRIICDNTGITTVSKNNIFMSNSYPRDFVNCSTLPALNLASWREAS

Row | Structure (SMILES) | IC50 (myeloperoxidase (MPO) [1]) [nM] | IC50 (myeloperoxidase (MPO) [2]) [nM]
1 | C[C@@H]1CN(c2cccc(Cn3cc(Cc4cc(N)nc5[nH]nnc45)cn3)c2)C[C@H](C)O1 [Example 228, 7-{[1-({3-[cis-2,6-Dimethylmorpholin-4-yl]phenyl}methyl)-1H-pyrazol-4-yl]methyl}-3H-[1,2,3]triazolo[4,5-b]pyridin-5-amine] | 101 to 999 | 101 to 999
2 | Nc1cc(Cc2cnn(Cc3cccc(N4CC5C(N)C5C4)c3)c2)c2nn[nH]c2n1 [Example 229, (1R,5S,6S)-3-(3-{[4-({5-Amino-3H-[1,2,3]triazolo[4,5-b]pyridin-7-yl}methyl)-1H-pyrazol-1-yl]methyl}phenyl)-3-azabicyclo[3.1.0]hexan-6-amine] | 1 to 100 | 101 to 999
3 | Nc1cc(Cc2cnn(Cc3cccc(Oc4cccc5c4CNC5)c3)c2)c2nn[nH]c2n1 [Example 231, 7-[(1-{[3-(2,3-Dihydro-1H-isoindol-4-yloxy)phenyl]methyl}-1H-pyrazol-4-yl)methyl]-3H-[1,2,3]triazolo[4,5-b]pyridin-5-amine] | 1 to 100 | 1 to 100
4 | COC(=O)CNCc1cccc(Oc2cccc(Cn3cc(Cc4cc(N)nc5[nH]nnc45)cn3)c2)c1 [Example 232, Methyl 2-({[3-(3-{[4-({5-amino-3H-[1,2,3]triazolo[4,5-b]pyridin-7-yl}methyl)-1H-pyrazol-1-yl]methyl}phenoxy)phenyl]methyl}amino)acetate] | 101 to 999 | 1 to 100
5 | Nc1cc(Cc2cnn(Cc3cccc(OCCC4CCc5ccccc54)c3)c2)c2nn[nH]c2n1 (stereo not shown) [Example 233, 7-{[1-({3-[2-(2,3-Dihydro-1H-inden-1-yl)ethoxy]phenyl}methyl)-1H-pyrazol-4-yl]methyl}-3H-[1,2,3]triazolo[4,5-b]pyridin-5-amine] | 101 to 999 | 101 to 999
6 | Nc1cc(Cc2cnn(Cc3cccc(OC4CCCNC4)c3)c2)c2nn[nH]c2n1 (stereo not shown) [Example 234, 7-[(1-{[3-(Piperidin-3-yloxy)phenyl]methyl}-1H-pyrazol-4-yl)methyl]-3H-[1,2,3]triazolo[4,5-b]pyridin-5-amine] | 1 to 100 | 1 to 100
7 | Nc1cc(Cc2cnn(Cc3cccc(OCC4CCc5ccccc54)c3)c2)c2nn[nH]c2n1 (stereo not shown) [Example 235, 7-[(1-{[3-(2,3-Dihydro-1H-inden-1-ylmethoxy)phenyl]methyl}-1H-pyrazol-4-yl)methyl]-3H-[1,2,3]triazolo[4,5-b]pyridin-5-amine] | 101 to 999 | 101 to 999
8 | Nc1cc(Cc2cnn(Cc3cccc(Oc4cccc(C5CCNCC5)c4)c3)c2)c2nn[nH]c2n1 [Example 236, 7-{[1-({3-[3-(Piperidin-4-yl)phenoxy]phenyl}methyl)-1H-pyrazol-4-yl]methyl}-3H-[1,2,3]triazolo[4,5-b]pyridin-5-amine] | 1 to 100 | 1 to 100
9 | Nc1cc(Cc2cnn(Cc3cccc(Oc4cccc5c4CNCC5)c3)c2)c2nn[nH]c2n1 [Example 237, 7-[(1-{[3-(1,2,3,4-Tetrahydroisoquinolin-8-yloxy)phenyl]methyl}-1H-pyrazol-4-yl)methyl]-3H-[1,2,3]triazolo[4,5-b]pyridin-5-amine] | 1 to 100 | 1 to 100
10 | Nc1cc(Cc2cnn(Cc3cccc(Oc4cccc(C5CCCN5)c4)c3)c2)c2nn[nH]c2n1 (stereo not shown) [Example 238, 7-{[1-({3-[3-(Pyrrolidin-2-yl)phenoxy]phenyl}methyl)-1H-pyrazol-4-yl]methyl}-3H-[1,2,3]triazolo[4,5-b]pyridin-5-amine] | 1 to 100 | 1 to 100
11 | Nc1cc(Cc2cnn(Cc3cccc(O[C@@H]4CCNC4)c3)c2)c2nn[nH]c2n1 [Example 239, 7-{[1-({3-[(3R)-Pyrrolidin-3-yloxy]phenyl}methyl)-1H-pyrazol-4-yl]methyl}-3H-[1,2,3]triazolo[4,5-b]pyridin-5-amine] | 1 to 100 | 1 to 100
12 | Nc1cc(Cc2cnn(Cc3cccc(O[C@H]4CCNC4)c3)c2)c2nn[nH]c2n1 [Example 240, 7-{[1-({3-[(3S)-Pyrrolidin-3-yloxy]phenyl}methyl)-1H-pyrazol-4-yl]methyl}-3H-[1,2,3]triazolo[4,5-b]pyridin-5-amine] | 1 to 100 | 1 to 100
13 | CN1CC[C@@H](Oc2cccc(Cn3cc(Cc4cc(N)nc5[nH]nnc45)cn3)c2)C1 [Example 241, 7-({1-[(3-{[(3R)-1-Methylpyrrolidin-3-yl]oxy}phenyl)methyl]-1H-pyrazol-4-yl}methyl)-3H-[1,2,3]triazolo[4,5-b]pyridin-5-amine] | 101 to 999 | 1 to 100
14 | Nc1cc(Cc2cnn(Cc3cccc(OC[C@@H]4CCCN4)c3)c2)c2nn[nH]c2n1 [Example 242, 7-{[1-({3-[(2S)-Pyrrolidin-2-ylmethoxy]phenyl}methyl)-1H-pyrazol-4-yl]methyl}-3H-[1,2,3]triazolo[4,5-b]pyridin-5-amine] | 1 to 100 | 1 to 100
15 | Nc1cc(Cc2cnn(Cc3cccc(OC[C@H]4CCCN4)c3)c2)c2nn[nH]c2n1 [Example 243, 7-{[1-({3-[(2R)-Pyrrolidin-2-ylmethoxy]phenyl}methyl)-1H-pyrazol-4-yl]methyl}-3H-[1,2,3]triazolo[4,5-b]pyridin-5-amine] | 1 to 100 | 1 to 100
16 | Nc1cc(Cc2cnn(Cc3cccc(OC[C@@H]4CCNC4)c3)c2)c2nn[nH]c2n1 [Example 244] | 1 to 100 | 1 to 100
17 | COC(=O)[C@@H]1C[C@@H](Oc2cccc(Cn3cc(Cc4cc(N)nc5[nH]nnc45)cn3)c2)CN1 [Example 245, Methyl (2S,4R)-4-(3-{[4-({5-amino-3H-[1,2,3]triazolo[4,5-b]pyridin-7-yl}methyl)-1H-pyrazol-1-yl]methyl}phenoxy)pyrrolidine-2-carboxylate] | 101 to 999 | 101 to 999
18 | Cc1nnc([C@@H]2C[C@@H](Oc3cccc(Cn4cc(Cc5cc(N)nc6[nH]nnc56)cn4)c3)CN2)o1 [Example 246, 7-({1-[(3-{[(3R,5S)-5-(5-Methyl-1,3,4-oxadiazol-2-yl)pyrrolidin-3-yl]oxy}phenyl)methyl]-1H-pyrazol-4-yl}methyl)-3H-[1,2,3]triazolo[4,5-b]pyridin-5-amine] | 1000 to 10000 | 1000 to 10000
19 | CN(C)C(=O)[C@@H]1C[C@@H](Oc2cccc(Cn3cc(Cc4cc(N)nc5[nH]nnc45)cn3)c2)CN1 [Example 247, (2S,4R)-4-(3-{[4-({5-Amino-3H-[1,2,3]triazolo[4,5-b]pyridin-7-yl}methyl)-1H-pyrazol-1-yl]methyl}phenoxy)-N,N-dimethylpyrrolidine-2-carboxamide] | 101 to 999 | 101 to 999
20 | Nc1cc(Cc2cnn(Cc3cccc(O[C@H]4CN[C@H](CO)C4)c3)c2)c2nn[nH]c2n1 [Example 248, [(2S,4R)-4-(3-{[4-({5-Amino-3H-[1,2,3]triazolo[4,5-b]pyridin-7-yl}methyl)-1H-pyrazol-1-yl]methyl}phenoxy)pyrrolidin-2-yl]methanol] | 101 to 999 | 1 to 100
21 | NCc1cccc(Cn2cc(Cc3cc(N)nc4[nH]nnc34)cn2)c1 [Example 249, 7-[(1-{[3-(Aminomethyl)phenyl]methyl}-1H-pyrazol-4-yl)methyl]-3H-[1,2,3]triazolo[4,5-b]pyridin-5-amine] | 101 to 999 | 1 to 100
22 | NCc1ccc(Cn2cc(Cc3cc(N)nc4[nH]nnc34)cn2)cc1 [Example 250, 7-[(1-{[4-(Aminomethyl)phenyl]methyl}-1H-pyrazol-4-yl)methyl]-3H-[1,2,3]triazolo[4,5-b]pyridin-5-amine] | 1 to 100 | 1 to 100
23 | CN(C)CC(=O)NCc1ccc(Cn2cc(Cc3cc(N)nc4[nH]nnc34)cn2)cc1 [Example 251, N-[(4-{[4-({5-Amino-3H-[1,2,3]triazolo[4,5-b]pyridin-7-yl}methyl)-1H-pyrazol-1-yl]methyl}phenyl)methyl]-2-(dimethylamino)acetamide] | 101 to 999 | 1 to 100
24 | CN1CCN(CC(=O)NCc2ccc(Cn3cc(Cc4cc(N)nc5[nH]nnc45)cn3)cc2)CC1 [Example 252, N-[(4-{[4-({5-Amino-3H-[1,2,3]triazolo[4,5-b]pyridin-7-yl}methyl)-1H-pyrazol-1-yl]methyl}phenyl)methyl]-2-(4-methylpiperazin-1-yl)acetamide] | 101 to 999 | 101 to 999
25 | Nc1cc(Cc2cnn(Cc3ccc(CNC(=O)CN4CCCC4)cc3)c2)c2nn[nH]c2n1 [Example 253, N-[(4-{[4-({5-Amino-3H-[1,2,3]triazolo[4,5-b]pyridin-7-yl}methyl)-1H-pyrazol-1-yl]methyl}phenyl)methyl]-2-(pyrrolidin-1-yl)acetamide] | 101 to 999 | 101 to 999
26 | Nc1cc(Cc2cnn(Cc3cccc(CN4CCCC4)c3)c2)c2nn[nH]c2n1 [Example 254, 7-[(1-{[3-(Pyrrolidin-1-ylmethyl)phenyl]methyl}-1H-pyrazol-4-yl)methyl]-3H-[1,2,3]triazolo[4,5-b]pyridin-5-amine] | 101 to 999 | 1 to 100
27 | CN(C)Cc1cccc(Cn2cc(Cc3cc(N)nc4[nH]nnc34)cn2)c1 [Example 255, 7-{[1-({3-[(Dimethylamino)methyl]phenyl}methyl)-1H-pyrazol-4-yl]methyl}-3H-[1,2,3]triazolo[4,5-b]pyridin-5-amine] | 1 to 100 | 1 to 100
28 | Nc1cc(Cc2cnn(Cc3cccc(CN4CCOCC4)c3)c2)c2nn[nH]c2n1 [Example 256, 7-[(1-{[3-(Morpholin-4-ylmethyl)phenyl]methyl}-1H-pyrazol-4-yl)methyl]-3H-[1,2,3]triazolo[4,5-b]pyridin-5-amine] | 101 to 999 | 101 to 999
29 | Nc1cc(Cc2cnn(Cc3cccc([C@@H]4CNCCO4)c3)c2)c2nn[nH]c2n1 [Example 257, 7-{[1-({3-[(2R)-Morpholin-2-yl]phenyl}methyl)-1H-pyrazol-4-yl]methyl}-3H-[1,2,3]triazolo[4,5-b]pyridin-5-amine] | 1 to 100 | 1 to 100
